The source of these data is ChEMBL document CHEMBL4507291 (2021).

As usually defined, the inhibition is the share of the control response that was lost under treatment.

Assay [1] has as its target Atypical kinase COQ8A, mitochondrial (Homo sapiens) (UniProt Q8NI60).
Assay [2] concerns ALK tyrosine kinase receptor (Homo sapiens), Q9UM73 [C1156Y].
Assay [3] addresses T1, Serine/threonine-protein kinase BRSK1 (Homo sapiens) (UniProt Q8TDC3).
T1 sequence (whole entry): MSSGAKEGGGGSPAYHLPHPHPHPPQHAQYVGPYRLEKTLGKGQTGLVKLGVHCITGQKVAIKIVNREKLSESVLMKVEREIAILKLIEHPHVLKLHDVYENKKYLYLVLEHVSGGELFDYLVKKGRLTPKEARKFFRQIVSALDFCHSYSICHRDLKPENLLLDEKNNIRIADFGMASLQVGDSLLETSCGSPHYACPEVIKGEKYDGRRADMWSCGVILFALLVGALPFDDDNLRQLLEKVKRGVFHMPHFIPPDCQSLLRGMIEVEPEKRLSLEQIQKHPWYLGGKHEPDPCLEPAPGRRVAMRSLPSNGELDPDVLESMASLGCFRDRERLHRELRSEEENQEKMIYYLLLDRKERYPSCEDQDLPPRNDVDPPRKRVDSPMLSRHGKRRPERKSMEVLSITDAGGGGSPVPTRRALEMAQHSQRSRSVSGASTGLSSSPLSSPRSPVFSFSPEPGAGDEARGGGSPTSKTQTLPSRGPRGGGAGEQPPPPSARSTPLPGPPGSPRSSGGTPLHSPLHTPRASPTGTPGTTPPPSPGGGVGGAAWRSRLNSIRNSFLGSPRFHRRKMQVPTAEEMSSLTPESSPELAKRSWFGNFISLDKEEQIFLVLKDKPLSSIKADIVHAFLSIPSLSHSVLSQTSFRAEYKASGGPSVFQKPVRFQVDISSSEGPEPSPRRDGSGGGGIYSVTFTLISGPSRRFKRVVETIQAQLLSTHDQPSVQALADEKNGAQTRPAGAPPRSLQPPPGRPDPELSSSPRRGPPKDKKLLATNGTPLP

Assay [4] addresses Peripheral plasma membrane protein CASK (Homo sapiens) (UniProt O14936).
The target in assay [5] is Cyclin-dependent kinase 8 (Homo sapiens) (UniProt P49336).
Assay [6] has as its system Receptor-type tyrosine-protein kinase FLT3 (Homo sapiens), P36888 [UNDEFINED MUTATION].
Assay [7] concerns the target Glycogen synthase kinase-3 beta (Homo sapiens) (UniProt P49841).
For assay [8], the target named is Tyrosine-protein kinase HCK (Homo sapiens) (UniProt P08631).
Assay [9] addresses Serine/threonine-protein kinase MARK1 (Homo sapiens) (UniProt Q9P0L2).
In assay [10] the target is Serine/threonine-protein kinase MARK2 (Homo sapiens) (UniProt Q7KZI7).
Assay [11] concerns the target Serine/threonine-protein kinase MRCK alpha (Homo sapiens) (UniProt Q5VT25).
In assay [12] the target is Mitogen-activated protein kinase 14 (Homo sapiens) (UniProt Q16539).
Mitogen-activated protein kinase 14 (Homo sapiens), sequence (Q16539 whole entry): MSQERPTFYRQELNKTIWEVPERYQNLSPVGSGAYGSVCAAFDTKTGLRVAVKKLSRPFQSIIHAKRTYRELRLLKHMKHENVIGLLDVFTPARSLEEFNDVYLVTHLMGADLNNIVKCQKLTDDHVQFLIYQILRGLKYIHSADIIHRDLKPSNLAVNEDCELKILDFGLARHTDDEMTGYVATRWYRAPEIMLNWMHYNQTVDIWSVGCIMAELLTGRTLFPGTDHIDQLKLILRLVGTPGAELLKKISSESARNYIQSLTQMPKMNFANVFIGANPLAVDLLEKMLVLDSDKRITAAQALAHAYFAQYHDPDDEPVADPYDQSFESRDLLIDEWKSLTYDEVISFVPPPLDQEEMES
The target in assay [13] is Serine/threonine-protein kinase PAK 2 (Homo sapiens) (UniProt Q13177).
Serine/threonine-protein kinase PAK 2 (Homo sapiens), sequence (Q13177 whole entry): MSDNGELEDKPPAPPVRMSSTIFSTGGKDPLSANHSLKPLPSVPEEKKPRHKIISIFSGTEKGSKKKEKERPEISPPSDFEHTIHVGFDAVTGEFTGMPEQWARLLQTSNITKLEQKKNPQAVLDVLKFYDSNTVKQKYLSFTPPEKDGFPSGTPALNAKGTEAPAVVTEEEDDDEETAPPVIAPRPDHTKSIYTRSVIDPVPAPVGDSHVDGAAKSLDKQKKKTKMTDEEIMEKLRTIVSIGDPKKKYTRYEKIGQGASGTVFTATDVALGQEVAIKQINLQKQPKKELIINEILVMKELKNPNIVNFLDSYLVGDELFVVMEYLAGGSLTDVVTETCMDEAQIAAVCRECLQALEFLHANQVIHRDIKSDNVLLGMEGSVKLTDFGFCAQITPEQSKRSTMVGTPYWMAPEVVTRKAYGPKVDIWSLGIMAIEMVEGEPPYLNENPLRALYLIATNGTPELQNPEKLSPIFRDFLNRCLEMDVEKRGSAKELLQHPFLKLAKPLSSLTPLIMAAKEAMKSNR
Assay [14] concerns the target Cyclin-dependent kinase 17 (Homo sapiens) (UniProt Q00537).
In assay [15] the target is 3-phosphoinositide-dependent protein kinase 1 (Homo sapiens) (UniProt O15530).
3-phosphoinositide-dependent protein kinase 1 (Homo sapiens), sequence (O15530 whole entry, canonical isoform): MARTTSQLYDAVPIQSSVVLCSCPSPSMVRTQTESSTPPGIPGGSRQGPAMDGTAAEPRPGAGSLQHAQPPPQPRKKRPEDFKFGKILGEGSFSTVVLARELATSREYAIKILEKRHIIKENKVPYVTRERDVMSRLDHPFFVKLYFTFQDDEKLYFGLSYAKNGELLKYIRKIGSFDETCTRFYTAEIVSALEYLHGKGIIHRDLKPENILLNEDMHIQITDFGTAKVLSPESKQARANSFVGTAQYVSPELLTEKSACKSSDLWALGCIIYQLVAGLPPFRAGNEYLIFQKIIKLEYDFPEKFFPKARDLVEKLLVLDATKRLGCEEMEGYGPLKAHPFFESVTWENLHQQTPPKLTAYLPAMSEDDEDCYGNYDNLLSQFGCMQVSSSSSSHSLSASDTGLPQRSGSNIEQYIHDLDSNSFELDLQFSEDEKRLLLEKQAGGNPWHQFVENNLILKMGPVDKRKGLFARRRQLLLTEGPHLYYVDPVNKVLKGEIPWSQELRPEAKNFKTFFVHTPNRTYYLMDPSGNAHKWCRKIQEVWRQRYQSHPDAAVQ
Assay [16] concerns Phosphatidylinositol 4,5-bisphosphate 3-kinase catalytic subunit alpha isoform (Homo sapiens), P42336 [E542K].
The target of assay [17] is Protein kinase C theta type (Homo sapiens) (UniProt Q04759).
Assay [18] deals with T2, Serine/threonine-protein kinase Sgk2 (Homo sapiens) (UniProt Q9HBY8).
T2 sequence (whole entry): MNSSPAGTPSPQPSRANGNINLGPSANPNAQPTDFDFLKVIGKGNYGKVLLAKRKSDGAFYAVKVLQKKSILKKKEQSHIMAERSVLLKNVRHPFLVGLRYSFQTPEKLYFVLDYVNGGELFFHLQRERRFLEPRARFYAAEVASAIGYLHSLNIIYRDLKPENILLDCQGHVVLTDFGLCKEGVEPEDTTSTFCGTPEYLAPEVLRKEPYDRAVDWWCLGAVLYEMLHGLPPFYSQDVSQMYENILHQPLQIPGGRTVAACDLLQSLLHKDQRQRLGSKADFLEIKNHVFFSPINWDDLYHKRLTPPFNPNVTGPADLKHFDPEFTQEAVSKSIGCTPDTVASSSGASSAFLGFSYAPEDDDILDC

Assay [19] addresses Non-receptor tyrosine-protein kinase TNK1 (Homo sapiens) (UniProt Q13470).
The target in assay [20] is 5-hydroxytryptamine receptor 2B (Homo sapiens, UniProt P41595). Conditions: Compound concentration 10.0 uM.
Assay [21] concerns the target T3, Alpha-1D adrenergic receptor (Homo sapiens) (UniProt P25100).
T3 sequence (whole entry): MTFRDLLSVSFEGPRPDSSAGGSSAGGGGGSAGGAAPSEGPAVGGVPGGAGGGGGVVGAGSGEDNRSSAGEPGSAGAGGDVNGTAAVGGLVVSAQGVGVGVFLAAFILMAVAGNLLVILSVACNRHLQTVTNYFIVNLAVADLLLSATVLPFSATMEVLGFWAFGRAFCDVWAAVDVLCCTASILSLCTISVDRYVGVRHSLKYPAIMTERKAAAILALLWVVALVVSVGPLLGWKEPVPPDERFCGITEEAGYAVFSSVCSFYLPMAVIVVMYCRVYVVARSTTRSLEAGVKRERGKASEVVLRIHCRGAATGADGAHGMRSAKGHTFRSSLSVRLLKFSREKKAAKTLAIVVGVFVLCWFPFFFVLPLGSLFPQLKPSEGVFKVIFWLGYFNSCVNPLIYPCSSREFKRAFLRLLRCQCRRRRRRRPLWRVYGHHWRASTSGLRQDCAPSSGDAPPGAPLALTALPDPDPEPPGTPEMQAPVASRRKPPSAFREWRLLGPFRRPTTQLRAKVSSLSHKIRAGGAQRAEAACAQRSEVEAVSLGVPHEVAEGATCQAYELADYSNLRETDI
Conditions: Compound concentration 10.0 uM.

Setting [22] is: Compound concentration 100.0 nM.
The mark [23] stands for this setting: Compound concentration 1000.0 nM.

Receptor-type tyrosine-protein kinase FLT3 (Homo sapiens), P36888 [UNDEFINED MUTATION], sequence (P36888 whole entry, looked up, change not shown): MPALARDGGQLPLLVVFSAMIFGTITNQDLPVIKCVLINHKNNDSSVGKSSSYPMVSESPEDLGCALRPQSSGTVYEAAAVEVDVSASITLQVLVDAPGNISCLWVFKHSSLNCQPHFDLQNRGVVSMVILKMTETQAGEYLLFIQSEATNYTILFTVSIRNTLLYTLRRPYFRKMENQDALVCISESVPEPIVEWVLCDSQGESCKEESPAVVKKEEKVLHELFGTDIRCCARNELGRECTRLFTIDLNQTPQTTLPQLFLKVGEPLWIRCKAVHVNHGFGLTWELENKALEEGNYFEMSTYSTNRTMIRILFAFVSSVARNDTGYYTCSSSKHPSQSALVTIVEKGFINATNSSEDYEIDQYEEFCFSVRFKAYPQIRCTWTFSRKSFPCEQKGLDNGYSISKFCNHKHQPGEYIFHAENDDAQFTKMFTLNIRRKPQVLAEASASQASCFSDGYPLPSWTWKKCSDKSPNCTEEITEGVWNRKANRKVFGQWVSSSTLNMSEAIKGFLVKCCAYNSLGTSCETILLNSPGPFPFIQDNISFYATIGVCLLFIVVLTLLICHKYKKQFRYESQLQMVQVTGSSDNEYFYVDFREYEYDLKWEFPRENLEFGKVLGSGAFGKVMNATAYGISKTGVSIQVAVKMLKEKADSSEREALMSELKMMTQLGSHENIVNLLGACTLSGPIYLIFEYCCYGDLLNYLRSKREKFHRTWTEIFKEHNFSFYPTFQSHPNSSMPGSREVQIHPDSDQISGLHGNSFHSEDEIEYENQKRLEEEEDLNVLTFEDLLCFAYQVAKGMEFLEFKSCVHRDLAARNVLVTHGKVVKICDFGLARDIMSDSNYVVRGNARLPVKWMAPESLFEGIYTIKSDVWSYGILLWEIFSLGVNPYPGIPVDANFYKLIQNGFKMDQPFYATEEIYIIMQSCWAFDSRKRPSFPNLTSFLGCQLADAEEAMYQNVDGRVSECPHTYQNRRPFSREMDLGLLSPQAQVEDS
Serine/threonine-protein kinase MRCK alpha (Homo sapiens), sequence (Q5VT25 whole entry): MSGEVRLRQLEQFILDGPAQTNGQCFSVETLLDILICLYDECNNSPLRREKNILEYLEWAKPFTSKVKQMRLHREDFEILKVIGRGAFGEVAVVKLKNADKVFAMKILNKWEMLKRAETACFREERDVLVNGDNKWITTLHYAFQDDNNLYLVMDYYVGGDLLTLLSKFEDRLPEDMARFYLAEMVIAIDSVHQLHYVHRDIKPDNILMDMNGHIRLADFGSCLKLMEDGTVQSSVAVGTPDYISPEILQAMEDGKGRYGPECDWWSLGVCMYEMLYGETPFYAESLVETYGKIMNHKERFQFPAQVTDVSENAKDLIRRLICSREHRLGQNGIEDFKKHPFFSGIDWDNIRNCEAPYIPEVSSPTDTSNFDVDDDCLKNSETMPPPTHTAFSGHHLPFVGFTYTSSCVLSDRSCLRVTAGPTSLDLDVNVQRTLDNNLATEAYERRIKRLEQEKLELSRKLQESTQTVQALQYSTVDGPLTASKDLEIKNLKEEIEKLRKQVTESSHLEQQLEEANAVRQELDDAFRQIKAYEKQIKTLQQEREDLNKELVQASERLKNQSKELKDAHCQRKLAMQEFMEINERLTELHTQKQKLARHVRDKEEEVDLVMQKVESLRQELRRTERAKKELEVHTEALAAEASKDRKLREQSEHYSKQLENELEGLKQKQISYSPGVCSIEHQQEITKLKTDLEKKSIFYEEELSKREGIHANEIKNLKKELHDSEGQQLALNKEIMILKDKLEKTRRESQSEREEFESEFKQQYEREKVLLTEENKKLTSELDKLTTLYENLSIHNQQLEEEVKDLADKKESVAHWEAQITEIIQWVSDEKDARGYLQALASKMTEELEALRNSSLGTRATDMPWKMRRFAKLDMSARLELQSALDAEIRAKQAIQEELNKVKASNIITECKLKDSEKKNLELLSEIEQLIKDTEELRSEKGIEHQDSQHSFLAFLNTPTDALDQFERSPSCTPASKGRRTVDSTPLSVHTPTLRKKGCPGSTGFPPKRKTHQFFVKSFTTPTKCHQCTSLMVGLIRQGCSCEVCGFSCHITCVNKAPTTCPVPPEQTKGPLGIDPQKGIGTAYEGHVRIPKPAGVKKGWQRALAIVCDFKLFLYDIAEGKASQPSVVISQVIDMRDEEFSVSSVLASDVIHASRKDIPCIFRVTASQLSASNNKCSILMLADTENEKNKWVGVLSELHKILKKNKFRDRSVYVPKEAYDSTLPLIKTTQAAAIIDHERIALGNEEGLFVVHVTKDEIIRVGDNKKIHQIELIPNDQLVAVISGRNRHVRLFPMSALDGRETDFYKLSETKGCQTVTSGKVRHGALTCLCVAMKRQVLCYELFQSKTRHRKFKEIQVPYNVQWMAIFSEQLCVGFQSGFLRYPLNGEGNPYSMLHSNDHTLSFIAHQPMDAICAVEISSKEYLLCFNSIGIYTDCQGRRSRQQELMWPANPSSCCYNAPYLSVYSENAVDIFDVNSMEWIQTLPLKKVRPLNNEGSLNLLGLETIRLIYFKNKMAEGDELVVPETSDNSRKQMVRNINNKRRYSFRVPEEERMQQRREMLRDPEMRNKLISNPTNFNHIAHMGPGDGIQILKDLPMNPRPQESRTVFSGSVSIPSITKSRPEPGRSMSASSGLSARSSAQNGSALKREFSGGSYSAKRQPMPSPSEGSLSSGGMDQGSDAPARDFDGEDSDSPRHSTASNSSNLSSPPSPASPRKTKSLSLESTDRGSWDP
Atypical kinase COQ8A, mitochondrial (Homo sapiens), sequence (Q8NI60 163-647 limits assumed): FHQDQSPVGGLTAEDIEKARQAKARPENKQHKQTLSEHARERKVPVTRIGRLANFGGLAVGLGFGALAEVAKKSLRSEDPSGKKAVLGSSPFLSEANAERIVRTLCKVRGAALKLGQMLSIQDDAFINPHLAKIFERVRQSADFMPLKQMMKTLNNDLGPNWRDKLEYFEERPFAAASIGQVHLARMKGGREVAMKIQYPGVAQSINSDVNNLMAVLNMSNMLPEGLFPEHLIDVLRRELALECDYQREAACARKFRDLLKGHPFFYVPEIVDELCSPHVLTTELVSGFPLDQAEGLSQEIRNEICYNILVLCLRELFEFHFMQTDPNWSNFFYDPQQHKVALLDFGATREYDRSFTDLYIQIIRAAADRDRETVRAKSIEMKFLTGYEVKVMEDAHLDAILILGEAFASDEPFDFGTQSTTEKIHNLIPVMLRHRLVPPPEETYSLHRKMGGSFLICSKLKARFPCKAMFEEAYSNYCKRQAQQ
Glycogen synthase kinase-3 beta (Homo sapiens), sequence (P49841 whole entry, looked up): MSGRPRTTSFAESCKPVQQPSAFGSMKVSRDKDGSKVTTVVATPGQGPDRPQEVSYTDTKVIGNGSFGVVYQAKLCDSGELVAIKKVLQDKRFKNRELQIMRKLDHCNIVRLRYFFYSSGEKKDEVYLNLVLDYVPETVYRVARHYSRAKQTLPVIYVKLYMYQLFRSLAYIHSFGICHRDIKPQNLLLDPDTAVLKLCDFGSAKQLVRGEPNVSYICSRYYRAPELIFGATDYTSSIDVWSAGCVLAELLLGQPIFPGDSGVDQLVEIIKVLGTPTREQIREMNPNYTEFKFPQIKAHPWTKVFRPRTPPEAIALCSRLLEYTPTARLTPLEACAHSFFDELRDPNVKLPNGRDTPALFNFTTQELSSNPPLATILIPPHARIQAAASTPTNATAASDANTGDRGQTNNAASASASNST

On to `C[C@@H]1CN(c2cc(-c3n[nH]c4ccc(OC5(C)CC5)cc34)ncn2)C[C@H](C)O1` [MLi-2], for which the residual activity was 85% in assay [1] (setting [22]); 89% in assay [2] (setting [22]); 96% in assay [3] (setting [22]); 59% in [4] (setting [22]); 63% in assay [5] (setting [22]); 69% in [6] (setting [22]). The residual activity in assay [7] (setting [22]) is 90%; in assay [8] (setting [22]) it was 84%; in assay [9] (setting [22]), 100%; in [10] (setting [22]), 100%; in [11] (setting [22]), 90%; in assay [12] (setting [22]), 95%. In addition, the residual activity in [13] (setting [22]) was 95%; in assay [14] (setting [22]), 89%; in assay [15] (setting [22]), 78%; in assay [16] (setting [22]), 81%; in assay [17] (setting [22]), 74%; in [18] (setting [22]), 84%. Further, the residual activity in assay [19] (setting [22]) was 76%. For the same compound, the inhibition in assay [20] is 41.4%; in [21], 3.26%.
Turning to `C[C@@H]1CN(c2cc(-c3nn(C)c4ccc(OC5(C)CC5)cc34)ncn2)C[C@H](C)O1` [MLi-2-NC], the residual activity was 100% in [1] (setting [23]); 82% in assay [2] (setting [23]); 97% in assay [3] (setting [23]); 93% in [4] (setting [23]); 100% in assay [5] (setting [23]); 87% in [6] (setting [23]). Also, the residual activity in assay [7] (setting [23]) was 91%; in assay [8] (setting [23]) it was 96%; in assay [9] (setting [23]), 100%; in assay [10] (setting [23]), 89%; in assay [11] (setting [23]), 89%; in assay [12] (setting [23]), 100%. In addition, the residual activity in [13] (setting [23]) was 90%; in assay [14] (setting [23]), 88%; in assay [15] (setting [23]), 100%; in assay [16] (setting [23]), 32%; in assay [17] (setting [23]), 91%; in assay [18] (setting [23]), 58%. Besides, in [19] (setting [23]), the residual activity is 95%. The inhibition in [20] was 26.7%; in assay [21] it was 10.2%.
